Source: patent US7354711B2, “Methods for inhibiting immunostimulatory DNA associated responses” (University of Iowa Research Foundation, priority 1997, dated 2008)

Key:
[1] = system: multi-drug resistance pump; assay: Potency with inhibition of the multi-drug resistance pump; format: cell-based
WEHI 231 cells [2] = assay: DNA fragmentation assay (α-sIgM-induced apoptosis); format: cell-based, mouse; details: 0.1 μM quinacrine, 6 μg/mL ODN 1760, α-sIgM, 16 hours
Description: The DNA fragmentation assay was carried out generally as follows. WEHI 231 cells were incubated with 0.5 μCi/milliliter [^3H] thymidine for 3 hours, centrifuged, resuspended in 2 milliliters of fresh medium at 2×10^5/milliliter, and incubated in a 24-well plate with additions as indicated. After incubation for 16-18 hours, 1 milliliter aliquots of the cells were centrifuged, washed with 200 μliters PBS. This suspension was drawn into a pipette tip containing 25 μliters of 2% SDS, and the mixture was immediately ejected into a well of a 0.8% agarose TBE gel containing 0.5 μliter/milliliter ethidium bromide. The gel was electrophoresed for 1 hour at 65 volts, destained in water, and photographed under ultraviolet light. The lanes of the gel were cut into three approximately equal portions. […] The gel portions were melted in glass scintillation vials and mixed with a 20 milliliter of scintillation cocktail and counted in a scintillation counter. The amount of fragmented DNA (DNA in the second and third gel pieces) was expressed as a percentage of the total counts recovered in the lane.
Referring to the experiments summarized in FIG. 2a, WEHI 231 cells (2×10^5 per milliliter) were incubated with or without 6 μgrams/milliliter ODN 1760, 10 μgrams/milliliter α-sIgM, or 0.1 μM quinacrine as indicated. Live cells were counted daily. […]

[3] = system: human peripheral blood mononuclear cells (PBMC); assay: ODN 1760-induced IL-6 production in human peripheral blood mononuclear cells; format: cell-based; details: 24 hours
Description: Referring to the experiments summarized in FIG. 9, human peripheral blood mononuclear cells (PBMC) from three donors were incubated with or without ODN 1760 and the indicated concentration of test compound. After 24 hours, the concentration of IL-6 was determined in the supernatant. The figure indicates the percentage of IL-6 in reference to ODN-treated cells. The IL-6 amounts for control sample per donor were as follows: donor 1, 203 picograms/milliliter; donor 2, 71.5 picograms/milliliter; donor 3, 465 picograms/milliliter. IL-6 measured from untreated cells was 0-21 picograms/milliliter. Results from the three donors were averaged, and error bars indicate 1 standard deviation.

WEHI 231 cells [4] = assay: Protection by lipopolysaccharide against α-sIgM-induced inhibition of [3H] thymidine uptake; format: cell-based, mouse; details: 0.1 μM quinacrine, concentration that completely reversed the effect of ODN 1760
Description: The assay of [^3H] Thymidine incorporation was carried out as follows. WEHI 231 cells (200 μL at 2×10^5/milliliter, in duplicate or triplicate) were incubated in a 96-well plate (Costar, Cambridge Mass.). Additions were made as indicated. After incubating for 16 hours, 0.5 μCi [methyl-^3H] thymidine (2 Ci/millimole, DuPont NEN, Boston Mass.) was added to each well, and the cells were incubated for another 4 hours. Cellular DNA was then captured onto glass fiber filters (Whatman 934AH) using a cell harvester (Brandel, Gaithersberg Md.). The filters were dried, placed into plastic scintillation vials with 10 milliliters of scintillation cocktail (EconoSafe, Research Products International, Mount Prospect Ill.), and counted in a liquid scintillation counter (Beckman LS-3133 T). The ^3H recovered on the filter was expressed as a fraction of the ^3H added. In a typical experiment, WEHI 231 cells incorporate about 15% of added ^3H.
In the experiments summarized in FIG. 5, the influence of LPS on α-sIgM-induced suppression of thymidine incorporation was examined.
Lipopolysaccharide (LPS) was added at the indicated concentration with or without 10 μgrams/milliliter α-sIgM and 0.1 μM quinacrine. The small degree of protection against α-sIgM-induced inhibition of [^3H] thymidine uptake afforded by LPS is not influenced by quinacrine.

7TD1 cells = assay: Inhibition of 7TD1 cell growth; format: cell-based, mouse
Description: One particularly useful cell line for the assay of immunostimulatory DNA action is the mouse-mouse hybridoma plasma cell line 7TD1(ATTC #CRL 1851), which requires exoqenous IL-6 for growth, and has been used to characterize and assay IL-6 (Papadopolous et al., 1995. J. Clin. Lab. Anal. 9:234-7; Krakauer, 1993. J. Immunoassay 14:267-77).
The 7TD1 cells were grown in RPMI 1640 supplemented with 10% fetal bovine serum (heat inactivated at 65° C., 1 hour), 0.3 grams/Liter L-glutamine, 50 milligrams/Liter gentamycin, 0.05 mM 2-mercaptoethanol, and 10 units per milliliter murine IL-6 in a 37° C. humid atmosphere with 5% CO2. Viable 7TD1 cells were counted in a hemocytometer chamber in duplicate after dilution with 0.4% trypan blue.
The 7TD1 cells were incubated for five days and were washed twice with medium to remove IL-6, and resuspended at 2×10^4 per milliliter in medium. Cell counts were performed and the percent inhibition of growth was computed. The term “anti” refers to 40 nanograms/milliliter neutralizing antibody to IL-6.

[5] = 6 μg/mL ODN 1760, 0.1 μM compound
[6] = 6 μg/mL ODN 1760, 0.3 μM compound
[7] = 6 μg/mL ODN 1760, 1 μM compound
[8] = 10 μg/mL IL-6 + 0.1 μM compound
[9] = 10 μg/mL IL-6 + 0.3 μM compound

SMILES: CCN(CC)CCCC(C)Nc1c2ccc(Cl)cc2nc2ccc(OC)cc12 (stereo not drawn) [quinacrine]
- Change of potency on inhibition of the multi-drug resistance pump [1]: magnified
- Reversal of ODN 1760 protection, percentage of fragmented DNA (FIG. 2b) (WEHI 231 cells [2]): reversed this protection
- Effect on ODN 1760-induced IL-6 production (FIG. 9) [3]: inhibited
- Effect on the action of LPS (FIG. 5) (WEHI 231 cells [4]): no effect
- 7TD1 cells/μL (7TD1 cells; [5]): 20 cells/μL
- % Growth Inhibition (7TD1 cells; [5]): 95%
- 7TD1 cells/μL (7TD1 cells; [6]): 20 cells/μL
- % Growth Inhibition (7TD1 cells; [6]): 95%
- 7TD1 cells/μL (7TD1 cells; [7]): 15 cells/μL
- % Growth Inhibition (7TD1 cells; [7]): 96.3%
- 7TD1 cells/μL (7TD1 cells; [8]): 707 cells/μL
- % Growth Inhibition (7TD1 cells; [8]): 20.2%
- 7TD1 cells/μL (7TD1 cells; [9]): 595 cells/μL
- % Growth Inhibition (7TD1 cells; [9]): 32.9%
- 7TD1 cells/μL (7TD1 cells; 10 μg/mL IL-6 + 1 μM compound): 587 cells/μL
- % Growth Inhibition (7TD1 cells; 10 μg/mL IL-6 + 1 μM compound): 33.8%
- Effect on IL-6-induced growth (7TD1 cells; 7TD1 cells, IL-6): little effect
- Effect on growth stimulation by CpG-ODN (7TD1 cells; 7TD1 cells, ODN 1760): blocked
